For orientation: pIC50 means the negative decadic logarithm of the IC50, by convention in mol/L. Higher therefore signals a small IC50.

pIC50: −log10 of the molar value.

The subject of the experiment is P. falciparum 3D7 growth, pLDH absorbance. Put plainly: blood-stage malaria parasite growth potency – strain 3D7, dose response (AID 2305).
In turn, `O=[N+]([O-])c1cccc(-c2nc(-c3ccc(Br)cc3)[nH]c2-c2ccc(Br)cc2)c1` had a pIC50 of 6.12.
The same measure for `Brc1ccc(Nc2nc3ccccc3nc2Nc2ccc(Br)cc2)cc1`: 6.11; for `CN(C)CCNCc1ccc(-c2cccc(-c3nc4ccccc4[nH]3)c2)cc1`: 6.14; for `Cc1cc(NCCC(=O)NCCOc2ccccc2)nc(NCCOc2ccccc2)n1`: 6.06.
As for `CC(CN(C)C)C(=O)Nc1ccc(-c2ccc(-c3nc4ccccc4[nH]3)cc2)cc1` (stereo not given), the figure is 6.13.
The same measure for `Cc1sc(C)c(CNCCCNc2cc(=O)c3ccccc3[nH]2)c1Br`: 6.06; for `Oc1ccc2[nH]c(-c3cccc(F)c3)nc2c1CN1CCC(O)(c2ccccc2)CC1`: 6.00; for `CN1CCN(CCCN(Cc2cccc(-c3ccc(CNCc4ccc5c(c4)OCO5)cc3)c2)C(=O)CCC2CCCC2)CC1`: 6.00.
On to `NC(=NCc1ccccc1Cl)NCCc1c[nH]c2ccccc12`, for which the pIC50 is 6.96.
The same measure for `Cc1nnsc1C(=O)Nc1ccc(-c2ccc(-c3nc4ccccc4[nH]3)s2)cc1`: 6.09.
As for `Cc1cc(N)ncc1-c1ccc(NC(=O)Nc2cc(C(F)(F)F)ccc2F)cc1`, the figure is 6.15; as for `CCCc1cc(Cc2cnc(N)nc2N)ccc1OCCCCCC(=O)OCC`, 6.30.
As for `CN(C)CCCN1CCN(Cc2ccc(-c3ccc(-c4nc5ccccc5[nH]4)s3)cc2)CC1`, the figure is 6.09; as for `O=C(/C=C/c1ccc(Cl)c(Cl)c1)NCCCCCN1CCC(NC(=O)Nc2ccc(OC(F)F)cc2)CC1`, 6.12; as for `CCc1ccc(NC(=O)N(CCCn2ccnc2)Cc2csc(-c3ccc(CNCc4ccccc4)cc3)n2)cc1`, 6.12.
Consider `Cc1[nH]nc2ccc(-c3cc(OC[C@@H](N)Cc4ccccc4)cnc3-c3cc4ccccc4s3)cc12`, for which the pIC50 was 6.09.
As for `Cc1ccc(C(=O)Nc2cccc(CN3CCCN(Cc4ccc(O)cc4)CC3)c2)cc1`, the figure is 5.96.
`O=C(CCNc1ccnc(NCCc2ccccc2)n1)Nc1ccccc1` gave a pIC50 of 6.08.
As for `Cc1cccc(CNc2nc(C)cc(NCCC(=O)NCCOc3ccccc3)n2)c1`, the figure is 6.06; as for `O=C(Nc1cc(F)cc(F)c1)N1CCOC(CCN2CCC(c3ccccc3)CC2)(c2ccc(Cl)c(Cl)c2)C1` (stereo not given), 6.33; as for `COc1ccc2nccc([C@@H](O)CN3CCC(NCc4nc5c(OCc6ccccc6)cccc5[nH]4)CC3)c2c1`, 6.74.
As for `O=C(/C=C/c1ccc(Cl)c(Cl)c1)NCCCCCN1CCC(NC(=O)Nc2cc(Cl)ccc2Cl)CC1`, the figure is 6.37; as for `CCCCCCN=C(N)c1ccc2nc(-c3ccc(O)cc3)[nH]c2c1`, 6.72; as for `CC(C)c1ccc(NC(=S)NN=Cc2ccccn2)cc1`, 6.14.
On to `O=C(N[C@H]1CCN(Cc2ccc(OCCCN3CCCCC3)cc2)C1)c1ccc(Cl)c(Cl)c1`, for which the pIC50 is 6.11. The pIC50 values of the last two compounds are within 0.2 log units of each other.
The same measure for `N#Cc1cc(C(=O)c2cc(Cl)ccc2O)cn(-c2cc(Cl)cc(Cl)c2)c1=O`: 6.07; for `Nc1ccc2[nH]cc(C3CCN(CC4CCC(NC(=O)/C=C/c5ccc(Cl)c(Cl)c5)CC4)CC3)c2n1` (stereo not given): 6.14; for `CC(C)Cn1cc(C2CCN(CCN3CCC(CNC(=O)c4ccc(-c5ccc(C#N)cc5)cc4)CC3)CC2)c2ccccc21`: 6.10.
As to `COc1ccc(CCN(C)CCCOc2ccc(NC(=O)c3cccc4c(=O)c5ccccc5[nH]c34)cc2)cc1OC`, the pIC50 was 6.04.
The same measure for `O=C(Nc1cccc(-c2ccc(-c3nc4ccc(F)cc4[nH]3)cc2)c1)Nc1ccc(F)c(F)c1F`: 6.96; for `Clc1ccc(CNc2ccnc(NCc3ccc4c(c3)OCCCO4)n2)c(Cl)c1`: 6.00; for `CNC(=O)C1Cc2c([nH]c3ccc(Cl)cc23)C2(CCN(CCc3ccccc3)CC2)N1` (stereo not given): 6.05.
As for `CCCN(CCC)CCCNc1ccc(C(=O)Nc2ccc(C)c(F)c2)cc1[N+](=O)[O-]`, the figure is 6.27; as for `CCc1cn2c3c(cc(C(=O)N[C@@H](Cc4cc(F)cc(F)c4)[C@H](O)CNC4CCCCC4)cc13)N(C)S(=O)(=O)CC2`, 7.52; as for `Cc1ccc(-n2c(Cc3cccc4ccccc34)nnc2SCCC#N)c(C)c1`, 6.34.
For the compound `CCS(=O)(=O)Nc1ccc2[nH]c(O)c(C(=Nc3ccc(CN4CCCCC4)cc3)c3ccccc3)c2c1`, the pIC50 is 7.22.
The same measure for `FC(F)(F)c1ccc(COc2cc(Cl)ccc2Cn2ccnc2)cc1`: 6.19; for `CCN(CCO)CCc1cccc(Nc2nccc(-c3c(-c4ccc(NC(=O)N(CC)CC)cc4)nn4ccccc34)n2)c1`: 5.95; for `COc1ccc2nccc(N(C)CC3(O)CCC(NCc4cc5c(cn4)OCCO5)CC3)c2n1` (stereo not given): 6.17.
The same measure for `Cc1[nH]nc2ccc(-c3cc(OC[C@@H](N)Cc4ccccc4)cnc3-c3ccc(OCc4cccc(F)c4)cc3)cc12`: 6.14; for `O=C(Nc1ccc2c(c1)OCO2)NC1CCN(c2ccnc(Nc3ccc(F)cc3)n2)C1` (stereo not given): 6.13; for `Cc1ccc(-c2nnc(Nc3ccc(C(=O)N4CCCCC4)cc3)c3ccccc23)cc1S(=O)(=O)NCC1CCCO1` (stereo not given): 6.15.
Compound `NC(=S)Cc1ccc2c(c1)OCO2` showed a pIC50 of 6.55.
`COc1cc(CCNc2nc(NCc3cccc4ccccc34)nc(N3CCC(N)CC3)n2)ccc1O` showed a pIC50 of 6.10.
`Cc1cc(NCCc2ccccc2)nc(/N=C(\N)Nc2cccc([N+](=O)[O-])c2)n1`: the pIC50 was 6.85.
As for `CN(CCc1ccccc1)c1ncc(-c2cccc(CNCCC3CCCN3C)c2)cn1` (stereo not given), the figure is 6.06; as for `COc1ccc(C2CC(c3ccccc3)=NN2C(=O)c2ccc(Br)o2)cc1` (stereo not given), 6.49.
`O=[N+]([O-])c1ccc2ncnc(Nc3ccc(F)c(Cl)c3)c2c1` gave a pIC50 of 6.15. Against the preceding compound, the pIC50 is 0.34 log units lower.
`O=C(/C=C/c1ccc(Cl)c(Cl)c1)N(Cc1ccccc1)C1CCC(CN2CCC(c3c[nH]c4ccccc34)CC2)CC1` (stereo not given) had a pIC50 of 6.68.
The same measure for `Oc1cccc(Nc2ccnc3cc(-c4ccccn4)ccc23)c1`: 6.13; for `O=C(Nc1ccnc2ccccc12)NC1CCN(CCc2ccccc2)CC1`: 6.44.
Regarding `CCCN(CCCCCCN(CCC)CCc1ccc(O)c(O)c1)CCc1ccc(O)cc1`, the pIC50 is 6.00.
Turning to `C=CCC(C(=O)Nc1ccnc2ccc(OC)cc12)C1CCN(CCCCCCC)CC1` (stereo not given), the pIC50 is 6.62.
For the compound `CCNC(=O)Nc1ccc(-c2ccc(-c3nc4c(C)cccc4[nH]3)s2)cc1`, the pIC50 is 5.97. Against the preceding compound, the pIC50 is 0.65 log units lower.
In the case of `Cc1cccc2[nH]c(-c3ccc(-c4ccc(CNCC(C)C)cc4)cc3)nc12`, the pIC50 was 6.39.
As for `COc1cc2c(c(OC)c1[N+](=O)[O-])C=CC1(O2)N(C)c2ccc([N+](=O)[O-])cc2C1(C)C` (stereo not given), the figure is 6.04; as for `COC(=O)c1ccc(CN2CCC(N(Cc3cccc(Oc4ccccc4)c3)S(=O)(=O)c3ccc(NC(C)=O)cc3)CC2)cc1`, 5.98.
In turn, `COc1ccc(C2C(C(=O)Nc3cc(C)ccc3OC)c3ccccc3C(=O)N2C)cc1` (stereo not given) gave a pIC50 of 6.01.
As for `COc1ccc2c(NN=Cc3cccc(Cl)c3)ccnc2c1`, the figure is 6.14.
`CCCc1cn2c3c(cc(C(=O)N[C@@H](Cc4ccccc4)[C@H](O)CNC4CCCCC4)cc13)N(C)S(=O)(=O)CC2`: the pIC50 was 7.15.
With `COc1ccc2nccc([C@@H](O)CN3CCC(NC(=O)c4cccc(-c5cc(C)no5)c4)CC3)c2c1`, the pIC50 was 6.47.
With `Cc1c(CCC#N)c(NCc2ccccc2)n2c(nc3ccccc32)c1C#N`, the pIC50 was 6.06.
As for `CC(=O)Nc1nc(C(=O)Nc2cccc(-c3ccc(-c4nc5ccc(F)cc5[nH]4)cc3)c2)cs1`, the figure is 6.54; as for `NC(N)=NN=Cc1cc2ccccc2c2ccccc12`, 6.74; as for `COc1ccc(Nc2ncc(C#N)c(Nc3ccccc3C(N)=O)n2)cc1N1CCN(C)CC1`, 6.85.
In turn, `CCCCOc1cc2c(cc1OCC)C(C=Cc1ccc(Cl)cc1Cl)=NCC2` showed a negative logarithm of the IC50 (pIC50) of 6.40.
The same measure for `O=S(=O)(Nc1cccc(CCN2CCC(N3CCCCC3)CC2)c1)c1ccc(-c2ccccc2)cc1`: 5.95; for `CCN(CC)CCOc1ccc(C(O)(C#CC(O)(c2ccccc2)c2ccc(OCCN(CC)CC)cc2)c2ccccc2)cc1` (stereo not given): 5.88; for `CC(C)CNCc1ccc(-c2cccc(CN(CCN(C)C)C(=O)NCCc3ccccc3)c2)cc1`: 5.97.
The same measure for `Cc1cccc2[nH]c(-c3ccc(-c4ccc(CN5CCN(CCC#N)CC5)cc4)cc3)nc12`: 6.07; for `CC1(CCCCN2CCC(Oc3ccc(F)cc3F)CC2)C(=O)Nc2ccccc21` (stereo not given): 6.12; for `O=C(Nc1cccc(-c2nn3ncccc3c2-c2ccnc(Nc3cccc(-c4cnco4)c3)n2)c1)c1c(F)cccc1F`: 6.77.
Compound `COc1cccc2cc(C(=O)N[C@@H](CC(C)C)C(=O)NC(/C=N/NC(=O)c3ccccc3)CCc3ccccc3)oc12` (stereo not given in full) showed a pIC50 of 6.24.
The same measure for `FC(F)(F)c1ccc2nc(-c3ccc(-c4cccc(CNCc5ccccc5)c4)cc3)[nH]c2c1`: 6.66; for `Cc1ccc(C2(CN3CCC(NC(=O)c4[nH]ncc4Cl)CC3)CCCCC2)cc1`: 6.49.
As for `O=C(NCCN1CCC(NC(=O)c2ccc(-c3ccccn3)s2)CC1)c1ccc(Cl)c(Cl)c1`, the figure is 6.06.
The same measure for `CC1CCCC(NCc2c(O)ccc3ccccc23)C1` (stereo not given): 6.03.
As for `c1ccc(C2=NN=C(c3ccccn3)[C@H]3[C@H]4C[C@@H]([C@@H]23)[C@@H]2[C@H]4[C@H]3C[C@@H]2c2ccccc23)nc1`, the pIC50 was 6.07.
As for `O=C(NC1CCCCC1)N(Cc1cccc(-c2ccc(CNCCc3ccccc3)cc2)c1)C1CCN(Cc2ccccc2)CC1`, the figure is 6.19; as for `N[C@@H](CCNC1CCN(c2cccc(C(F)(F)F)c2)CC1)Cc1ccc(F)c(F)c1`, 5.89.
With `CN(C)c1ccc(CN2CCC(NC(=O)c3ccc(-c4ccc(N(C)C)cc4)s3)CC2)cc1`, the pIC50 was 5.97. This pIC50 and that of the compound before are within 0.2 log units of each other.
The compound `C=C(NC(=O)c1cc(C)cc(C)c1)C(=O)OC` showed a pIC50 of 6.77.
As for `Cn1cncc1C(=O)Nc1cccc(-c2cccc(-c3nc4ccc(C(F)(F)F)cc4[nH]3)c2)c1`, the figure is 6.70; as for `COc1ccc(CNCc2ccc(-c3cccc(-c4nc5ccc(F)cc5[nH]4)c3)cc2)cc1`, 6.70.
The same measure for `Cc1nnc2c(NC(=O)/C=C/c3ccc(OC(F)(F)F)cc3)cc3cc(Cl)ccc3n12`: 6.77.

These data come from PubChem BioAssay AID2305 (GlaxoSmithKline (GSK), 2010).
